Measured values taken from publication PMC8617031, “Development of a BCL-xL and BCL-2 dual degrader with improved anti-leukemic activity,” (Nature Communications, 2021).
“And” between values parts separate entries of the source, which are not always exact repeats. Equal values may be shown once.

Experiments:
[1] = biological target: T1, BCL-2/PROTAC/VCB ternary complex (Homo sapiens, UniProt P10415+P40337); experiment: AlphaLISA ternary complex formation, cell-free, BCL-2; type: binding; conditions: for Alpha (Alpha Endpoint read, Bcl-2 ternary complex formation): raw plate signal, duplicate wells; for AlphaLISA signal, BCL-2/PROTAC/VCB: Fig. 2d raw Alpha reads
T1 construct: pGEX-6P-1-VHL(54-213) (pDL2200) was constructed through Gibson assembly method; made in house; host or cells: bacterial culture (LB broth, IPTG induction)
Experimental: AlphaLISA assay was used to evaluate the in vitro ternary complex formation between target proteins (BCL-xL or BCL-2), PROTAC and E3 ligase (VCB complex). In each well, 5 nM His-tagged BCL-xL or BCL-2 proteins and 5 nM GST-VCB complex was incubated with varying concentrations of compounds in fourfold serial dilutions, to a final volume of 40 µl in a 96-well PCR plate. After incubation at room temperature for 30 min, 5 µl alpha glutathione-donor beads (Cat. No. 6765300, PerkinElmer) were added to each well (20 µg/ml final concentration) and incubated for another 15 min. Thereafter, 5 µL 6× His-acceptor beads were added to each well (20 µg/ml final concentration) and incubated for an additional 45 min at room temperature. Thereafter, 17 µl of each sample was transferred in adjacent wells of a 384-well proxy plate, and the plate was scanned using the Alpha program on Biotek’s Synergy Neo2 multimode plate reader. The data were expressed as average AlphaLISA signal and plotted against different concentrations of compounds using GraphPad Prism 9 software.

[2] = test system: BCL-xL/PROTAC/VCB ternary complex (HiBit-BCL-xL, HaloTag-VHL); experiment: NanoBRET intracellular ternary complex formation in 293T cells, BCL-xL; type: cell-based, human; conditions: for nanoBRET ratio (610/450, background-subtracted), Ave, Bcl-xl: Ave of Read2 and Read3; for nanoBRET ratio (610/450, background-subtracted), Ave, Bcl-xl / nanoBRET ratio (610/450, background-subtracted), Read2, Bcl-xl / nanoBRET ratio (610/450, background-subtracted), Read3, Bcl-xl: triplicate wells
Summary of the method: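 293T cells were transfected with HiBit-BCL-xL or HiBit-BCL-2 plus HaloTag-VHL and incubated overnight with or without HaloTag NanoBRET 618 ligand in 4% FBS Opti-MEM. Serially diluted compounds were applied for 6 h at 37 °C. mBRET ratio from donor emission (450/50 nm) and acceptor emission (610 nm longpass) after Nano-Glo substrate.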

T1 sequence (P10415 1-211 limits assumed): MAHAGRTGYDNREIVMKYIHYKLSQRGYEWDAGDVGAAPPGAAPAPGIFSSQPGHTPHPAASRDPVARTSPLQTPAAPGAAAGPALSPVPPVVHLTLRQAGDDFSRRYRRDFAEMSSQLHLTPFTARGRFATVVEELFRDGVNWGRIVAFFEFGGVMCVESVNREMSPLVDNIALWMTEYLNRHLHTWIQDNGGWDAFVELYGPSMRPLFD
T1 sequence (P40337 54-213 limits assumed): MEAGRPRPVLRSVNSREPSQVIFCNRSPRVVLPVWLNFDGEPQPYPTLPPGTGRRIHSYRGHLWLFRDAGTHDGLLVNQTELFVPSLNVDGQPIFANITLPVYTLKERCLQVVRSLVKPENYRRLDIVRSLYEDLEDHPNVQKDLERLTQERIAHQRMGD
T1 sequence (Q15369 17-112 partner limits assumed): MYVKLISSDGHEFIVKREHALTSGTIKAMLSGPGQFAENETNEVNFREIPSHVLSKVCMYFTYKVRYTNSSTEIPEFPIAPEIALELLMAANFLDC
T1 sequence (Q15370 whole entry partner): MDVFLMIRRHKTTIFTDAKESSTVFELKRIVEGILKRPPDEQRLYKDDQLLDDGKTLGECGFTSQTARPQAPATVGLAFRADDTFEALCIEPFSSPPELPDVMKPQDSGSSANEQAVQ

Row | Alpha (Alpha Endpoint read, Bcl-2 ternary complex formation) ([1]; Conc. 0.0762939 nM) | Alpha (Alpha Endpoint read, Bcl-2 ternary complex formation) ([1]; Conc. 0.305176 nM) | Alpha (Alpha Endpoint read, Bcl-2 ternary complex formation) ([1]; Conc. 1.2207 nM) | Alpha (Alpha Endpoint read, Bcl-2 ternary complex formation) ([1]; Conc. 4.88281 nM) | Alpha (Alpha Endpoint read, Bcl-2 ternary complex formation) ([1]; Conc. 19.5312 nM) | Alpha (Alpha Endpoint read, Bcl-2 ternary complex formation) ([1]; Conc. 78.125 nM) | Alpha (Alpha Endpoint read, Bcl-2 ternary complex formation) ([1]; Conc. 312.5 nM) | Alpha (Alpha Endpoint read, Bcl-2 ternary complex formation) ([1]; Conc. 1250 nM) | Alpha (Alpha Endpoint read, Bcl-2 ternary complex formation) ([1]; Conc. 5000 nM) | Alpha (Alpha Endpoint read, Bcl-2 ternary complex formation) ([1]; Conc. 20000 nM) | SMILES | nanoBRET ratio (610/450, background-subtracted), Ave, Bcl-xl ([2]; 0.004 uM) | nanoBRET ratio (610/450, background-subtracted), Read2, Bcl-xl ([2]; 0.004 uM) | nanoBRET ratio (610/450, background-subtracted), Read3, Bcl-xl ([2]; 0.004 uM) | nanoBRET ratio (610/450, background-subtracted), Ave, Bcl-xl ([2]; 0.012 uM) | nanoBRET ratio (610/450, background-subtracted), Read2, Bcl-xl ([2]; 0.012 uM) | nanoBRET ratio (610/450, background-subtracted), Read3, Bcl-xl ([2]; 0.012 uM) | nanoBRET ratio (610/450, background-subtracted), Ave, Bcl-xl ([2]; 0.111 uM) | nanoBRET ratio (610/450, background-subtracted), Read2, Bcl-xl ([2]; 0.111 uM) | nanoBRET ratio (610/450, background-subtracted), Read3, Bcl-xl ([2]; 0.111 uM) | nanoBRET ratio (610/450, background-subtracted), Ave, Bcl-xl ([2]; 0.333 uM) | also measured
1 | 50534 and 53139 | 145058 and 154080 | 205372 and 217088 | 773602 and 780039 | 1990534 and 2015902 | 2343633 and 2509831 | 1692897 and 1765154 | 434318 and 434578 | 40362 and 44856 | 14264 and 11638 | Cc1ncsc1-c1ccc([C@H](C)NC(=O)[C@@H]2C[C@@H](O)CN2C(=O)[C@@H](NC(=O)CCCCCCC(=O)N2CCN(C[C@@]3(C)CCC(c4ccc(Cl)cc4)=C(CN4CCN(c5ccc(C(=O)NS(=O)(=O)c6ccc(N[C@H](CCN7CCOCC7)CSc7ccccc7)c(S(=O)(=O)C(F)(F)F)c6)cc5)CC4)C3)CC2)C(C)(C)C)cc1 [753a] | 6.588 and 5.267 and 6.114 | 6.808 and 5.756 and 5.973 | 6.368 and 4.777 and 6.254 | 7.772 and 5.901 and 5.719 | 8.034 and 6.13 and 5.719 | 7.511 and 5.673 and 5.719 | 7.6 and 7.528 and 6.707 | 8.597 and 7.785 and 7.564 | 6.603 and 7.27 and 5.849 | 7.771 and 7.613 and 7.591 | nanoBRET ratio (610/450, background-subtracted), Read2, Bcl-xl ([2]; 0.333 uM): 8.649 and 8.045 and 7.293; nanoBRET ratio (610/450, background-subtracted), Read3, Bcl-xl ([2]; 0.333 uM): 6.893 and 7.18 and 7.888; nanoBRET ratio (610/450, background-subtracted), Ave, Bcl-xl ([2]; 1 uM): 6.777 and 6.861 and 6.637; nanoBRET ratio (610/450, background-subtracted), Read2, Bcl-xl ([2]; 1 uM): 6.613 and 6.856 and 7.09; nanoBRET ratio (610/450, background-subtracted), Read3, Bcl-xl ([2]; 1 uM): 6.94 and 6.866 and 6.184; nanoBRET ratio (610/450, background-subtracted), Ave, Bcl-xl ([2]; 3 uM): 7.07 and 7.184 and 6.888; nanoBRET ratio (610/450, background-subtracted), Read2, Bcl-xl ([2]; 3 uM): 7.24 and 8.026 and 7.182; nanoBRET ratio (610/450, background-subtracted), Read3, Bcl-xl ([2]; 3 uM): 6.9 and 6.341 and 6.5933
2 | 13075 and 14039 | 25282 and 13828 | 26631 and 14952 | 23864 and 13192 |  | 25354 and 12957 |  | 25045 and 14016 |  | 20320 and 11437 | CC1(C)CCC(c2ccc(Cl)cc2)=C(CN2CCN(c3ccc(C(=O)NS(=O)(=O)c4ccc(N[C@H](CCN5CCOCC5)CSc5ccccc5)c(S(=O)(=O)C(F)(F)F)c4)cc3)CC2)C1 [ABT263, navitoclax] |  |  |  |  |  |  |  |  |  |  | 
3 | 20813 and 18426 | 25167 and 44180 | 134706 and 124477 | 167974 and 147424 | 637139 and 671757 | 1569627 and 1815622 | 1851330 and 1734079 | 970107 and 1023464 | 185911 and 171854 | 15128 and 13041 | Cc1ncsc1-c1ccc([C@H](C)NC(=O)[C@@H]2C[C@@H](O)CN2C(=O)[C@@H](NC(=O)CCCCCC(=O)N2CCN(CC[C@H](CSc3ccccc3)Nc3ccc(S(=O)(=O)NC(=O)c4ccc(N5CCN(CC6=C(c7ccc(Cl)cc7)CCC(C)(C)C6)CC5)cc4)cc3S(=O)(=O)C(F)(F)F)CC2)C(C)(C)C)cc1 [DT2216] |  |  |  |  |  |  |  |  |  |  | AlphaLISA signal, BCL-2/PROTAC/VCB ([1]; compound 0.191 nM): 15777 and 15419; AlphaLISA signal, BCL-2/PROTAC/VCB ([1]; compound 0.763 nM): 15170 and 18328; AlphaLISA signal, BCL-2/PROTAC/VCB ([1]; compound 3.052 nM): 22062 and 18311; AlphaLISA signal, BCL-2/PROTAC/VCB ([1]; compound 12.207 nM): 69812 and 70261; AlphaLISA signal, BCL-2/PROTAC/VCB ([1]; compound 48.828 nM): 478226 and 503248; AlphaLISA signal, BCL-2/PROTAC/VCB ([1]; compound 195.31 nM): 862665 and 765838; AlphaLISA signal, BCL-2/PROTAC/VCB ([1]; compound 781.25 nM): 770133 and 699715; AlphaLISA signal, BCL-2/PROTAC/VCB ([1]; compound 3125 nM): 392514 and 467832; AlphaLISA signal, BCL-2/PROTAC/VCB ([1]; compound 12500 nM): 47038 and 50161; AlphaLISA signal, BCL-2/PROTAC/VCB ([1]; compound 50000 nM): 7988 and 8322; AlphaLISA signal, BCL-2/PROTAC/VCB ([1]; compound 200000 nM, 2 technical replicates): 7003 and 7472

Row | SMILES | Alpha (Alpha Endpoint read, Bcl-2 ternary complex formation) ([1]; Conc. 0.0762939 nM) | Alpha (Alpha Endpoint read, Bcl-2 ternary complex formation) ([1]; Conc. 0.305176 nM) | Alpha (Alpha Endpoint read, Bcl-2 ternary complex formation) ([1]; Conc. 1.2207 nM) | Alpha (Alpha Endpoint read, Bcl-2 ternary complex formation) ([1]; Conc. 4.88281 nM) | Alpha (Alpha Endpoint read, Bcl-2 ternary complex formation) ([1]; Conc. 19.5312 nM) | Alpha (Alpha Endpoint read, Bcl-2 ternary complex formation) ([1]; Conc. 78.125 nM) | Alpha (Alpha Endpoint read, Bcl-2 ternary complex formation) ([1]; Conc. 312.5 nM) | Alpha (Alpha Endpoint read, Bcl-2 ternary complex formation) ([1]; Conc. 1250 nM) | Alpha (Alpha Endpoint read, Bcl-2 ternary complex formation) ([1]; Conc. 5000 nM) | Alpha (Alpha Endpoint read, Bcl-2 ternary complex formation) ([1]; Conc. 20000 nM) | nanoBRET ratio (610/450, background-subtracted), Ave, Bcl-xl ([2]; 0.004 uM) | nanoBRET ratio (610/450, background-subtracted), Read2, Bcl-xl ([2]; 0.004 uM) | nanoBRET ratio (610/450, background-subtracted), Read3, Bcl-xl ([2]; 0.004 uM) | nanoBRET ratio (610/450, background-subtracted), Ave, Bcl-xl ([2]; 0.012 uM) | nanoBRET ratio (610/450, background-subtracted), Read2, Bcl-xl ([2]; 0.012 uM) | nanoBRET ratio (610/450, background-subtracted), Read3, Bcl-xl ([2]; 0.012 uM) | nanoBRET ratio (610/450, background-subtracted), Ave, Bcl-xl ([2]; 0.111 uM) | nanoBRET ratio (610/450, background-subtracted), Read2, Bcl-xl ([2]; 0.111 uM) | nanoBRET ratio (610/450, background-subtracted), Read3, Bcl-xl ([2]; 0.111 uM) | nanoBRET ratio (610/450, background-subtracted), Ave, Bcl-xl ([2]; 0.333 uM) | also measured
4 | Cc1ncsc1-c1ccc([C@H](C)NC(=O)[C@@H]2C[C@@H](O)CN2C(=O)[C@@H](NC(=O)CCCCCCC(=O)N2CCN(C[C@]3(C)CCC(c4ccc(Cl)cc4)=C(CN4CCN(c5ccc(C(=O)NS(=O)(=O)c6ccc(N[C@H](CCN7CCOCC7)CSc7ccccc7)c(S(=O)(=O)C(F)(F)F)c6)cc5)CC4)C3)CC2)C(C)(C)C)cc1 [753b] | 175483 and 157446 | 174555 and 132830 | 345223 and 378556 | 1458903 and 1528033 | 3478424 and 3254843 | 2950431 and 3084677 | 1886162 and 2006989 | 474662 and 509499 | 83238 and 74082 | 44557 and 25949 | 6.669 and 7.034 and 7.222 | 6.7548 and 7.529 and 7.533 | 6.584 and 6.539 and 6.911 | 7.369 and 7.678 and 8.359 | 7.541 and 7.384 and 8.298 | 7.198 and 7.973 and 8.421 | 9.509 and 8.705 and 10.1696 | 10.2238 and 9.035 and 9.873 | 8.794 and 8.375 and 10.4663 | 10.2723 and 9.168 and 8.741 | in vitro ternary complex formation with BCL-2 (in words) ([1]; AlphaLISA, cell-free, Fig. 2d, 3f): stronger ternary complexes with BCL-xL/2 than those by 753a and DT2216; nanoBRET ratio (610/450, background-subtracted), Read2, Bcl-xl ([2]; 0.333 uM): 10.5785 and 8.953 and 8.643; nanoBRET ratio (610/450, background-subtracted), Read3, Bcl-xl ([2]; 0.333 uM): 9.9661 and 9.383 and 8.84; nanoBRET ratio (610/450, background-subtracted), Ave, Bcl-xl ([2]; 1 uM): 8.944 and 10.7233 and 9.842; nanoBRET ratio (610/450, background-subtracted), Read2, Bcl-xl ([2]; 1 uM): 9.3741 and 12.2305 and 10.3071; nanoBRET ratio (610/450, background-subtracted), Read3, Bcl-xl ([2]; 1 uM): 8.514 and 9.216 and 9.3776; nanoBRET ratio (610/450, background-subtracted), Ave, Bcl-xl ([2]; 3 uM): 8.924 and 8.687 and 9.846; nanoBRET ratio (610/450, background-subtracted), Read2, Bcl-xl ([2]; 3 uM): 9.65 and 9.358 and 10.5304; nanoBRET ratio (610/450, background-subtracted), Read3, Bcl-xl ([2]; 3 uM): 8.197 and 8.015 and 9.162; intracellular ternary complex formation with BCL-xL (in words) ([2]; NanoBRET, 293T cells, 6 h): much higher activity to induce the ternary complex formation with both BCL-xL and BCL-2 relative to 753a
